Experimental data reported in PMC11396129, “Oxindole–benzothiazole hybrids as CDK2 inhibitors and anticancer agents: design, synthesis and biological evaluation” (BMC Chemistry, 2024).

Tests used:
PC-3 = assay: NCI 60 panel growth inhibition (SRB), prostate cancer; type: cell-based, human
Outline: (§1)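 Growth inhibition measured by SRB across a five-dose range; TGI defined as the concentration where test absorbance equals time-zero absorbance. Out-of-range effects expressed as above or below the highest or lowest concentration tested.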

DU-145 = assay: as above; type: cell-based, human
Outline: as §1

SK-MEL-2 = assay: NCI 60 panel growth inhibition (SRB), melanoma; type: cell-based, human
Outline: as §1

SK-MEL-5 = assay: NCI 60 panel growth inhibition (SRB), melanoma; type: cell-based, human
Outline: as §1

LOX IMVI = assay: NCI 60 panel growth inhibition (SRB), melanoma; type: cell-based, human
Outline: as §1

UACC-62 = assay: NCI 60 panel growth inhibition (SRB), melanoma; type: cell-based, human
Outline: as §1

M14 = assay: NCI 60 panel growth inhibition (SRB), melanoma; type: cell-based, human
Outline: as §1

MDA-MB-435 = assay: NCI 60 panel growth inhibition (SRB), melanoma; type: cell-based, human
Outline: as §1

UACC-257 = assay: NCI 60 panel growth inhibition (SRB), melanoma; type: cell-based, human
Outline: as §1

SK-MEL-28 = assay: NCI 60 panel growth inhibition (SRB), melanoma; type: cell-based, human
Outline: as §1

MALME-3M = assay: NCI 60 panel growth inhibition (SRB), melanoma; type: cell-based, human
Outline: as §1

HT29 = assay: NCI 60 panel growth inhibition (SRB), colon cancer; type: cell-based, human
Outline: as §1

COLO 205 = assay: NCI 60 panel growth inhibition (SRB), colon cancer; type: cell-based, human; conditions: Homo sapiens; COLO 205, five dose
Outline: as §1

HCT-15 = assay: NCI 60 panel growth inhibition (SRB), colon cancer; type: cell-based, human
Outline: as §1

CDK2 = target: T1, CDK2 (Homo sapiens, UniProt P24941); assay: CDK2 kinase assay (BPS kit, Kinase-Glo Max); type: biochemical
T1 construct: purchased BPS Biosciences 79599

CCRF-CEM = assay: NCI 60 panel growth inhibition (SRB), leukemia; type: cell-based, human
Outline: as §1

K-562 = assay: NCI 60 panel growth inhibition (SRB), leukemia; type: cell-based, human
Outline: as §1

RPMI-8226 = assay: NCI 60 panel growth inhibition (SRB), leukemia; type: cell-based, human
Outline: as §1

HL-60(TB) = assay: NCI 60 panel growth inhibition (SRB), leukemia; type: cell-based, human
Outline: as §1

MOLT-4 = assay: NCI 60 panel growth inhibition (SRB), leukemia; type: cell-based, human
Outline: as §1

SR = assay: NCI 60 panel growth inhibition (SRB), leukemia; type: cell-based, human
Outline: as §1

TK-10 = assay: NCI 60 panel growth inhibition (SRB), renal cancer; type: cell-based, human
Outline: as §1

RXF 393 = assay: NCI 60 panel growth inhibition (SRB), renal cancer; type: cell-based, human
Outline: as §1

ACHN = assay: NCI 60 panel growth inhibition (SRB), renal cancer; type: cell-based, human
Outline: as §1

786-0 = assay: NCI 60 panel growth inhibition (SRB), renal cancer; type: cell-based, human
Outline: as §1

UO-31 = assay: NCI 60 panel growth inhibition (SRB), renal cancer; type: cell-based, human
Outline: as §1

A498 = assay: NCI 60 panel growth inhibition (SRB), renal cancer; type: cell-based, human
Outline: as §1

SN12C = assay: NCI 60 panel growth inhibition (SRB), renal cancer; type: cell-based, human
Outline: as §1

CAKI-1 = assay: NCI 60 panel growth inhibition (SRB), renal cancer; type: cell-based, human
Outline: as §1

## COc1ccc2c(c1)C(=NNC(=O)COc1cc(-c3nc4ccccc4s3)ccc1OC)C(=O)N2 [Compound 9o, 2-(5-(Benzo[d]thiazol-2-yl)-2-methoxyphenoxy)-N′-(5-methoxy-2-oxoindolin-3-ylidene)acetohydrazide]
PC-3; Homo sapiens, PC-3, five dose
  GI50: 3.78 µM
PC-3; PC-3, 10 μM
  GI%: 49.56%
DU-145; DU-145, 10 μM
  GI%: 130.12%
DU-145; Homo sapiens, DU-145, five dose
  GI50: 2.92 µM
SK-MEL-2; Homo sapiens, SK-MEL-2, five dose
  GI50: > 100 µM
SK-MEL-2; SK-MEL-2, 10 μM
  GI%: 26.06%
SK-MEL-5; Homo sapiens, SK-MEL-5, five dose
  GI50: 41.5 µM
SK-MEL-5; SK-MEL-5, 10 μM
  GI%: 24.21%
LOX IMVI; 10 μM
  GI%: 160.95%
LOX IMVI; Homo sapiens, five dose
  GI50: 4.09 µM
UACC-62; Homo sapiens, UACC-62, five dose
  GI50: 59.3 µM
UACC-62; UACC-62, 10 μM
  GI%: – (GI% < 5%)
M14; Homo sapiens, M14, five dose
  GI50: 47.4 µM
M14; M14, 10 μM
  GI%: 39.13%
MDA-MB-435; Homo sapiens, MDA-MB-435, five dose
  GI50: 20.6 µM
MDA-MB-435; MDA-MB-435, 10 μM
  GI%: 96.57%
UACC-257; Homo sapiens, UACC-257, five dose
  GI50: > 100 µM
UACC-257; UACC-257, 10 μM
  GI%: – (GI% < 5%)
SK-MEL-28; Homo sapiens, SK-MEL-28, five dose
  GI50: > 100 µM
SK-MEL-28; SK-MEL-28, 10 μM
  GI%: 37.85%
MALME-3M; 10 μM
  GI%: 35.23%
MALME-3M; Homo sapiens, five dose
  GI50: 2.28 µM
HT29; HT29, 10 μM
  GI%: 20.32%
HT29; Homo sapiens, HT-29, HT29, five dose
  GI50: 26.8 µM
COLO 205
  GI50: 10.6 µM
HCT-15; HCT-15, 10 μM
  GI%: 127.40%
HCT-15; Homo sapiens, HCT-15, five dose
  GI50: 3.6 µM
CDK2; from IC50 of Tables 4 and 5
  kinase selectivity: higher selectivity toward CDK2 and CDK5 over CDK1, VEGFR-2 and FGFR-1
CDK2; mean of two independent experiments ± SD
  IC50: 0.21 ± 0.015 µM
CCRF-CEM; 10 μM
  GI%: 57.64%
CCRF-CEM; Homo sapiens, five dose
  GI50: 6.08 µM
K-562; Homo sapiens, K562, K-562, five dose
  GI50: 3.75 µM
K-562; K-562, 10 μM
  GI%: 64.36%
RPMI-8226; Homo sapiens, RPMI-8226, five dose
  GI50: 61.4 µM
RPMI-8226; RPMI-8226, 10 μM
  GI%: 66.93%
HL-60(TB); HL-60(TB), 10 μM
  GI%: 7.99%
HL-60(TB); Homo sapiens, HL-60 (TB), five dose
  GI50: > 100 µM
MOLT-4; Homo sapiens, MOLT-4, five dose
  GI50: 5.05 µM
MOLT-4; MOLT-4, 10 μM
  GI%: 36.32%
SR; 10 μM
  GI%: 35.47%
SR; Homo sapiens, five dose
  GI50: 20.9 µM
TK-10; Homo sapiens, TK-10, five dose
  GI50: 71.7 µM
TK-10; TK-10, 10 μM
  GI%: 86.88%
RXF 393; Homo sapiens, RXF 393, five dose
  GI50: 5.06 µM
RXF 393; RXF 393, 10 μM
  GI%: 129.01%
ACHN; 10 μM
  GI%: 96.99%
ACHN; Homo sapiens, five dose
  GI50: 6.7 µM
786-0; 786-0, 10 μM
  GI%: 75.63%
786-0; Homo sapiens, 786-0, five dose
  GI50: 16.1 µM
UO-31; Homo sapiens, UO-31, five dose
  GI50: 2.03 µM
UO-31; UO-31, 10 μM
  GI%: 44.24%
A498; A498, 10 μM
  GI%: – (GI% < 5%)
A498; Homo sapiens, A498, five dose
  GI50: > 100 µM
SN12C; 10 μM
  GI%: 24.01%
SN12C; Homo sapiens, five dose
  GI50: 25.6 µM
CAKI-1; CAKI-1, 10 μM
  GI%: 72.22%
CAKI-1; Homo sapiens, CAKI-1, five dose
  GI50: 56.2 µM
